Results reported in ChEMBL document CHEMBL3763148, “Synthesis, structure elucidation, DNA-PK and PI3K and anti-cancer activity of 8- and 6-aryl-substituted-1-3-benzoxazines” (Eur J Med Chem, 2016).

Experiments:
[1] = tested on: NCI-H460; assay: Cytotoxicity against human NCI-H460 cells assessed as cell growth inhibition at 10 uM after 48 hrs by SRB assay relative to control; assay type: functional; details: NCI-H460, 48 h, read-out: GI
[2] = Cytotoxicity against human SF295 cells assessed as cell growth inhibition at 10 uM after 48 hrs by SRB assay relative to control; assay type: functional; details: SF-295, 48 h, read-out: GI
[3] = Cytotoxicity against human RXF393 cells assessed as cell growth inhibition at 10 uM after 48 hrs by SRB assay relative to control; assay type: functional; details: RXF 393, 48 h, read-out: GI
[4] = Cytotoxicity against human UACC257 cells assessed as cell growth inhibition at 10 uM after 48 hrs by SRB assay relative to control; assay type: functional; details: UACC-257, 48 h, read-out: GI
[5] = target: Phosphatidylinositol 4,5-bisphosphate 3-kinase catalytic subunit gamma isoform (Homo sapiens) (UniProt P48736); assay: Inhibition of PI3Kgamma (unknown origin) at 10 uM incubated for 60 mins by kinase-glo luminescence assay
Phosphatidylinositol 4,5-bisphosphate 3-kinase catalytic subunit gamma isoform (Homo sapiens), sequence (P48736 whole entry, looked up, canonical isoform): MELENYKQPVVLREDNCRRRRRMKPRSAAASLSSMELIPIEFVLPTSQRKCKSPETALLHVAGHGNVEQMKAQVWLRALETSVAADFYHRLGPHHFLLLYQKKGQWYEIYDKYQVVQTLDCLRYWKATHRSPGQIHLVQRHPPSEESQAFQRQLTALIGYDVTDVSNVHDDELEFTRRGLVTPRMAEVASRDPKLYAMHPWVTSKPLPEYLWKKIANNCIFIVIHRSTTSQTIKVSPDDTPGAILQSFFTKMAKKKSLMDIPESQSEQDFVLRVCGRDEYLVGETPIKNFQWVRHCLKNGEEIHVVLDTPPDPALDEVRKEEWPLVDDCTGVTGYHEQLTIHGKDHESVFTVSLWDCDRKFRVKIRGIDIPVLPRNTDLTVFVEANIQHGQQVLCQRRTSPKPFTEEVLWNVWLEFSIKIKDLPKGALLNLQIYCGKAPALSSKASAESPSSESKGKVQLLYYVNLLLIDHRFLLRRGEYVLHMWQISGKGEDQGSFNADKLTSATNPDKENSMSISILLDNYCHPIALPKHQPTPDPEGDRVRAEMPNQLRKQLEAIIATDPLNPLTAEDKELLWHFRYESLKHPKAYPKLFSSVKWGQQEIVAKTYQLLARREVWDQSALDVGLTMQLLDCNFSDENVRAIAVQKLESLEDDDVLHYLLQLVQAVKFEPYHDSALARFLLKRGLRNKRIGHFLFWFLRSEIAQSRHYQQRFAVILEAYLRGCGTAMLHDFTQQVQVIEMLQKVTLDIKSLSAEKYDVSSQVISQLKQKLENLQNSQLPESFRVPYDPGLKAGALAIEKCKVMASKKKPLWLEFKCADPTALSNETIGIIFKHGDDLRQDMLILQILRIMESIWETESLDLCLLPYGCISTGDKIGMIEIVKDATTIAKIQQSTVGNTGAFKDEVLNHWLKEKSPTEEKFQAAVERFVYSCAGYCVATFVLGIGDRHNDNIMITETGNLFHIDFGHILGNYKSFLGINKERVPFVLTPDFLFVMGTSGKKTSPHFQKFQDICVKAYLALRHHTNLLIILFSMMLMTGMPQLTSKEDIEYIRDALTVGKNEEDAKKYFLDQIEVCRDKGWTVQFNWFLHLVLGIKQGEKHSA

[6] = Cytotoxicity against human OVCAR3 cells assessed as cell growth inhibition at 10 uM after 48 hrs by SRB assay relative to control; assay type: functional; details: OVCAR-3, 48 h, read-out: GI
[7] = Cytotoxicity against human SNB19 cells assessed as cell growth inhibition at 10 uM after 48 hrs by SRB assay relative to control; assay type: functional; details: SNB-19, 48 h, read-out: GI
[8] = tested on: SK-MEL-5; assay: Cytotoxicity against human SK-MEL-5 cells assessed as cell growth inhibition at 10 uM after 48 hrs by SRB assay relative to control; assay type: functional; details: SK-MEL-5, 48 h, read-out: GI
[9] = tested on: EKVX; assay: Cytotoxicity against human EKVX cells assessed as cell growth inhibition at 10 uM after 48 hrs by SRB assay relative to control; assay type: functional; details: read-out: GI
[10] = Cytotoxicity against human HOP92 cells assessed as cell growth inhibition at 10 uM after 48 hrs by SRB assay relative to control; assay type: functional; details: HOP-92, 48 h, read-out: GI
[11] = Cytotoxicity against human SW620 cells assessed as cell growth inhibition at 10 uM after 48 hrs by SRB assay relative to control; assay type: functional; details: SW-620, 48 h, read-out: GI
[12] = tested on: SK-MEL-2; assay: Cytotoxicity against human SK-MEL-2 cells assessed as cell growth inhibition at 10 uM after 48 hrs by SRB assay relative to control; assay type: functional; details: SK-MEL-2, 48 h, read-out: GI
[13] = tested on: M14; assay: Cytotoxicity against human M14 cells assessed as cell growth inhibition at 10 uM after 48 hrs by SRB assay relative to control; assay type: functional; details: M14, 48 h, read-out: GI
[14] = Cytotoxicity against human SF268 cells assessed as cell growth inhibition at 10 uM after 48 hrs by SRB assay relative to control; assay type: functional; details: SF-268, 48 h, read-out: GI
[15] = tested on: HT-29; assay: Cytotoxicity against human HT-29 cells assessed as cell growth inhibition at 10 uM after 48 hrs by SRB assay relative to control; assay type: functional; details: HT-29, 48 h, read-out: GI
[16] = tested on: NCI-H23; assay: Cytotoxicity against human NCI-H23 cells assessed as cell growth inhibition at 10 uM after 48 hrs by SRB assay relative to control; assay type: functional; details: NCI-H23, 48 h, read-out: GI
[17] = Cytotoxicity against human LOXIMVI cells assessed as cell growth inhibition at 10 uM after 48 hrs by SRB assay relative to control; assay type: functional; details: LOX IMVI, read-out: GI
[18] = Cytotoxicity against human SNB75 cells assessed as cell growth inhibition at 10 uM after 48 hrs by SRB assay relative to control; assay type: functional; details: SNB-75, 48 h, read-out: GI
[19] = tested on: A498; assay: Cytotoxicity against human A498 cells assessed as cell growth inhibition at 10 uM after 48 hrs by SRB assay relative to control; assay type: functional; details: A498, 48 h, read-out: GI
[20] = Cytotoxicity against human HCT116 cells assessed as cell growth inhibition at 10 uM after 48 hrs by SRB assay relative to control; assay type: functional; details: HCT-116, 48 h, read-out: GI
[21] = Cytotoxicity against human UO31 cells assessed as cell growth inhibition at 10 uM after 48 hrs by SRB assay relative to control; assay type: functional; details: UO-31, 48 h, read-out: GI
[22] = Cytotoxicity against human SF539 cells assessed as cell growth inhibition at 10 uM after 48 hrs by SRB assay relative to control; assay type: functional; details: SF-539, 48 h, read-out: GI
[23] = Cytotoxicity against human HCT15 cells assessed as cell growth inhibition at 10 uM after 48 hrs by SRB assay relative to control; assay type: functional; details: HCT-15, 48 h, read-out: GI
[24] = target: T1, Phosphatidylinositol 4,5-bisphosphate 3-kinase catalytic subunit delta isoform (Homo sapiens, UniProt O00329); assay: Inhibition of PI3Kdelta (unknown origin) incubated for 60 mins by kinase-glo luminescence assay
T1 sequence (O00329 whole entry): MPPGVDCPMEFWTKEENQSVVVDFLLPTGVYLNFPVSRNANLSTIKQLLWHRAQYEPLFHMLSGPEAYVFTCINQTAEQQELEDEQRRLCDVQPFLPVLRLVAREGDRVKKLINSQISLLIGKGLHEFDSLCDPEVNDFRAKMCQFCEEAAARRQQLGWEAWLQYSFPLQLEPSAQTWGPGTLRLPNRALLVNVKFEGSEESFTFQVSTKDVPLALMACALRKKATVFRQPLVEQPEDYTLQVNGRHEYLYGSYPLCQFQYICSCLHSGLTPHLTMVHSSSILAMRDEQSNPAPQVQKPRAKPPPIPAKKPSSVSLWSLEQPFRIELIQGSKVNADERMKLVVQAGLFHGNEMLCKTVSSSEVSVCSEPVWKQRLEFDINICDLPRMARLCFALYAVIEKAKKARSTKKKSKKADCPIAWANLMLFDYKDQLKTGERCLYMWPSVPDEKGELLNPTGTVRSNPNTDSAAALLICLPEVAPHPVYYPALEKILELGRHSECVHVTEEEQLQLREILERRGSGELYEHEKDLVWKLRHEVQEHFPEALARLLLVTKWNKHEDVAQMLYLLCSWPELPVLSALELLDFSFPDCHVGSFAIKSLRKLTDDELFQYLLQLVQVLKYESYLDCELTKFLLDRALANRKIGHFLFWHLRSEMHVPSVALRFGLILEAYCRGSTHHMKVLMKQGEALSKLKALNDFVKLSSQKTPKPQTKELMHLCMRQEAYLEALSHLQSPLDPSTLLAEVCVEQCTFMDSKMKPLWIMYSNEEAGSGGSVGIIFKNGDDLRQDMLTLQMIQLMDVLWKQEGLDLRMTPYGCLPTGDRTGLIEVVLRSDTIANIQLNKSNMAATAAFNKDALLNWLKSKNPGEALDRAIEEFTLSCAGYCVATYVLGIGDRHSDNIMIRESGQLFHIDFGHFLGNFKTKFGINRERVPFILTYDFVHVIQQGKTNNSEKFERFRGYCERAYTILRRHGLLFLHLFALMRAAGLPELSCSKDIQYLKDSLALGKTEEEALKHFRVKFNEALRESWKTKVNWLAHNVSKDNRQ

Compound: O=c1nc(N2CCOCC2)oc2ccc(-c3cccc4c3sc3ccccc34)cc12
- inhibition of growth at 10 µM [1]: -1.46%
- inhibition of growth at 10 µM [2]: 0.5%
- inhibition of growth at 10 µM [3]: -5.78%
- inhibition of growth at 10 µM [4]: 4.51%
- inhibition [5]: 0%
- inhibition of growth at 10 µM [6]: -11.1%
- inhibition of growth at 10 µM [7]: 4.68%
- inhibition of growth at 10 µM [8]: 9.84%
- inhibition of growth at 10 µM [9]: 5.25%
- inhibition of growth at 10 µM [10]: 41.6%
- inhibition of growth at 10 µM [11]: 5.25%
- inhibition of growth at 10 µM [12]: 1.3%
- inhibition of growth at 10 µM [13]: 2.99%
- inhibition of growth at 10 µM [14]: -3.32%
- inhibition of growth at 10 µM [15]: -13.4%
- inhibition of growth at 10 µM [16]: -2.37%
- inhibition of growth at 10 µM [17]: 1.76%
- inhibition of growth at 10 µM [18]: 10.5%
- inhibition of growth at 10 µM [19]: 37.4%
- inhibition of growth at 10 µM [20]: 8.17%
- inhibition of growth at 10 µM [21]: 1.02%
- inhibition of growth at 10 µM [22]: 0.05%
- inhibition of growth at 10 µM [23]: 29.8%

Compound: O=c1nc(N2CCOCC2)oc2c(-c3cccc4c3sc3ccccc34)cccc12
- inhibition of growth at 10 µM [1]: 4.79%
- inhibition of growth at 10 µM [2]: 11%
- inhibition of growth at 10 µM [3]: 38.4%
- inhibition of growth at 10 µM [4]: 5.04%
- inhibition [5]: 27%
- inhibition of growth at 10 µM [6]: 13.7%
- inhibition of growth at 10 µM [7]: 18.5%
- IC50 [24]: 8.5 µM
- inhibition of growth at 10 µM [8]: 17.2%
- inhibition of growth at 10 µM [9]: 28.3%
- inhibition of growth at 10 µM [10]: 53.8%
- inhibition of growth at 10 µM [11]: 5.95%
- inhibition of growth at 10 µM [12]: 9.49%
- inhibition of growth at 10 µM [13]: 3.09%
- inhibition of growth at 10 µM [14]: 15.2%
- inhibition of growth at 10 µM [15]: 16.9%
- inhibition of growth at 10 µM [16]: 13.4%
- inhibition of growth at 10 µM [17]: 21.3%
- inhibition of growth at 10 µM [18]: 53%
- inhibition of growth at 10 µM [19]: 46.4%
- inhibition of growth at 10 µM [20]: 18.7%
- inhibition of growth at 10 µM [21]: 52%
- inhibition of growth at 10 µM [22]: 15.1%
- inhibition of growth at 10 µM [23]: 13.4%

Compound: O=c1nc(N2CCOCC2)oc2c(-c3cccc4c3oc3ccccc34)cccc12
- inhibition of growth at 10 µM [1]: -2.97%
- inhibition of growth at 10 µM [2]: 0.3%
- inhibition of growth at 10 µM [3]: 15%
- inhibition of growth at 10 µM [4]: -3.42%
- inhibition [5]: 32%
- inhibition of growth at 10 µM [6]: 2.85%
- inhibition of growth at 10 µM [7]: 4.3%
- IC50 [24]: 12 µM
- inhibition of growth at 10 µM [8]: 13.7%
- inhibition of growth at 10 µM [9]: 18.2%
- inhibition of growth at 10 µM [10]: 45.6%
- inhibition of growth at 10 µM [11]: 0.96%
- inhibition of growth at 10 µM [12]: -4.28%
- inhibition of growth at 10 µM [13]: -2.42%
- inhibition of growth at 10 µM [14]: 9.26%
- inhibition of growth at 10 µM [15]: 1.56%
- inhibition of growth at 10 µM [16]: 11.1%
- inhibition of growth at 10 µM [17]: 39.2%
- inhibition of growth at 10 µM [18]: 41.5%
- inhibition of growth at 10 µM [19]: 27.9%
- inhibition of growth at 10 µM [20]: 6.54%
- inhibition of growth at 10 µM [21]: 40.1%
- inhibition of growth at 10 µM [22]: 3.81%
- inhibition of growth at 10 µM [23]: 13.1%
